≈ marks a conversion by molar mass, not a printed value. Calls of active or inactive are those of the source. No cut-off for these calls is given here.
Assays:
[1] = system: Staphylococcus aureus; test: Antibacterial activity against methicillin-resistant Staphylococcus aureus N315 assessed as inhibition of bacterial growth incubated for 24 hrs by CLSI protocol based two fold serial dilution method; type: functional
[2] = system: Pseudomonas aeruginosa; test: Antibacterial activity against Pseudomonas aeruginosa ATCC 27853 assessed as inhibition of bacterial growth incubated for 24 hrs by CLSI protocol based two fold serial dilution method; type: functional
[3] = system: Staphylococcus aureus; test: Antibacterial activity against Staphylococcus aureus 25923 assessed as inhibition of bacterial growth incubated for 24 hrs by CLSI protocol based two fold serial dilution method; type: functional
[4] = system: Enterococcus faecalis; test: Antibacterial activity against Enterococcus faecalis assessed as inhibition of bacterial growth incubated for 24 hrs by CLSI protocol based two fold serial dilution method; type: functional
[5] = system: Klebsiella pneumoniae; test: Antibacterial activity against Klebsiella pneumonia assessed as inhibition of bacterial growth incubated for 24 hrs by CLSI protocol based two fold serial dilution method; type: functional
[6] = system: Pseudomonas aeruginosa; test: Antibacterial activity against Pseudomonas aeruginosa assessed as inhibition of bacterial growth incubated for 24 hrs by CLSI protocol based two fold serial dilution method; type: functional
[7] = system: Staphylococcus aureus; test: Antibacterial activity against methicillin-resistant Staphylococcus aureus N315 assessed as inhibition of bacterial growth at 0.5 to 16 ug/ml measured after 24 hrs by microplate reader assay; type: functional, organism-based; conditions: dose 0.5-16 µg/ml
[8] = system: Escherichia coli; test: Antibacterial activity against Escherichia coli 25922 assessed as inhibition of bacterial growth incubated for 24 hrs by CLSI protocol based two fold serial dilution method; type: functional
[9] = system: Staphylococcus aureus; test: Antibacterial activity against Staphylococcus aureus assessed as inhibition of bacterial growth incubated for 24 hrs by CLSI protocol based two fold serial dilution method; type: functional
[10] = Hemolytic activity in human RBC assessed as hemolysis at 1 to 32 ug/ml measured after 60 mins by microplate reader assay relative to control; type: toxicity, cell-based, Erythrocyte; conditions: red blood cells (erythrocytes), at 1 to 32 µg/mL, dose 1-32 µg/ml, read-out: Activity
[11] = system: Staphylococcus aureus; test: Antibacterial activity against methicillin-resistant Staphylococcus aureus N315 assessed as inhibition of bacterial growth at 0.25 to 64 ug/ml incubated for 24 hrs by Alamar blue assay; type: functional, organism-based; conditions: dose 0.25-64 µg/ml
[12] = system: Staphylococcus aureus; test: Antibacterial activity against Staphylococcus aureus 29213 assessed as inhibition of bacterial growth incubated for 24 hrs by CLSI protocol based two fold serial dilution method; type: functional
[13] = system: Acinetobacter baumannii; test: Antibacterial activity against Acinetobacter baumannii assessed as inhibition of bacterial growth incubated for 24 hrs by CLSI protocol based two fold serial dilution method; type: functional
[14] = system: Staphylococcus aureus; test: Antibacterial activity against methicillin-resistant Staphylococcus aureus N315 assessed as change in susceptibility at sub-MIC treated over 9 serial passages measured after 9 days by resistance development assay; type: functional, organism-based; conditions: time 9.0 day
[15] = system: Escherichia coli; test: Antibacterial activity against Escherichia coli assessed as inhibition of bacterial growth incubated for 24 hrs by CLSI protocol based two fold serial dilution method; type: functional
[16] = system: Pseudomonas aeruginosa; test: Antibacterial activity against Pseudomonas aeruginosa ATCC 27853 assessed as change in susceptibility at sub-MIC treated over 9 serial passages measured after 9 days by resistance development assay; type: functional, organism-based; conditions: time 9.0 day

| SMILES | MIC [1] | MIC [2] | MIC [3] | MIC [4] | MIC [5] | MIC [6] | Activity [7] | MIC [8] | MIC [9] | hemolysis at 1 h [10] | Activity [11] | MIC [12] | MIC [13] | Activity [14] | MIC [15] | Activity [16] |
| --- | --- | --- | --- | --- | --- | --- | --- | --- | --- | --- | --- | --- | --- | --- | --- | --- |
| Sc1nnc(Cn2c3ccccc3c3c(OCC4CCCC4)cccc32)o1 | 2 µg/mL (≈ 5.27 µM) | 4 µg/mL (≈ 10.5 µM) | 4 µg/mL (≈ 10.5 µM) | 1 µg/mL (≈ 2.64 µM) | 4 µg/mL (≈ 10.5 µM) | 256 µg/mL (≈ 675 µM) | Active | 1 µg/mL (≈ 2.64 µM) | 256 µg/mL (≈ 675 µM) | < 3% | Active | 0.25 µg/mL (≈ 0.659 µM) | 2 µg/mL (≈ 5.27 µM) | Active | 4 µg/mL (≈ 10.5 µM) |  |
| Sc1nnc(COc2cccc3c2c2ccccc2n3CC2CC2)o1 | 0.5 µg/mL (≈ 1.42 µM) | 1 µg/mL (≈ 2.85 µM) | 4 µg/mL (≈ 11.4 µM) | 8 µg/mL (≈ 22.8 µM) | 4 µg/mL (≈ 11.4 µM) | 256 µg/mL (≈ 728 µM) |  | 1 µg/mL (≈ 2.85 µM) | 256 µg/mL (≈ 728 µM) |  |  | 8 µg/mL (≈ 22.8 µM) | 16 µg/mL (≈ 45.5 µM) | Active | 4 µg/mL (≈ 11.4 µM) | Active |
| CCn1c2ccccc2c2c(OCc3nnc(S)o3)cccc21 | 2 µg/mL (≈ 6.15 µM) | 0.5 µg/mL (≈ 1.54 µM) | 4 µg/mL (≈ 12.3 µM) | 8 µg/mL (≈ 24.6 µM) | 4 µg/mL (≈ 12.3 µM) | 256 µg/mL (≈ 787 µM) |  | 8 µg/mL (≈ 24.6 µM) | 256 µg/mL (≈ 787 µM) |  |  | 8 µg/mL (≈ 24.6 µM) | 8 µg/mL (≈ 24.6 µM) |  | 8 µg/mL (≈ 24.6 µM) | Active |
| Sc1nnc(COc2cccc3c2c2ccccc2n3CC2CCCCC2)o1 | 0.5 µg/mL (≈ 1.27 µM) | 1 µg/mL (≈ 2.54 µM) | 8 µg/mL (≈ 20.3 µM) | 4 µg/mL (≈ 10.2 µM) | 2 µg/mL (≈ 5.08 µM) | 256 µg/mL (≈ 651 µM) |  | 2 µg/mL (≈ 5.08 µM) | 256 µg/mL (≈ 651 µM) |  |  | 16 µg/mL (≈ 40.7 µM) | 4 µg/mL (≈ 10.2 µM) | Active | 4 µg/mL (≈ 10.2 µM) | Active |
| C=CCn1c2ccccc2c2c(OCc3nnc(S)o3)cccc21 | 1 µg/mL (≈ 2.96 µM) | 0.5 µg/mL (≈ 1.48 µM) | 4 µg/mL (≈ 11.9 µM) | 64 µg/mL (≈ 190 µM) | 4 µg/mL (≈ 11.9 µM) | 256 µg/mL (≈ 759 µM) |  | 8 µg/mL (≈ 23.7 µM) | 256 µg/mL (≈ 759 µM) |  |  | 4 µg/mL (≈ 11.9 µM) | 8 µg/mL (≈ 23.7 µM) |  | 8 µg/mL (≈ 23.7 µM) | Active |
| CCCCOc1cccc2c1c1ccccc1n2Cc1nnc(S)o1 | 256 µg/mL (≈ 724 µM) | 256 µg/mL (≈ 724 µM) | 256 µg/mL (≈ 724 µM) | 4 µg/mL (≈ 11.3 µM) | 256 µg/mL (≈ 724 µM) | 256 µg/mL (≈ 724 µM) |  | 256 µg/mL (≈ 724 µM) | 256 µg/mL (≈ 724 µM) |  |  | 256 µg/mL (≈ 724 µM) | 0.25 µg/mL (≈ 0.707 µM) |  | 256 µg/mL (≈ 724 µM) |  |
| CCCCCCOc1cccc2c1c1ccccc1n2Cc1nnc(S)o1 | 256 µg/mL (≈ 671 µM) | 256 µg/mL (≈ 671 µM) | 256 µg/mL (≈ 671 µM) | 256 µg/mL (≈ 671 µM) | 256 µg/mL (≈ 671 µM) | 256 µg/mL (≈ 671 µM) |  | 4 µg/mL (≈ 10.5 µM) | 256 µg/mL (≈ 671 µM) |  |  | 1 µg/mL (≈ 2.62 µM) | 256 µg/mL (≈ 671 µM) |  | 8 µg/mL (≈ 21 µM) |  |
| CCCCCOc1cccc2c1c1ccccc1n2Cc1nnc(S)o1 | 256 µg/mL (≈ 697 µM) | 256 µg/mL (≈ 697 µM) | 256 µg/mL (≈ 697 µM) | 256 µg/mL (≈ 697 µM) | 256 µg/mL (≈ 697 µM) | 256 µg/mL (≈ 697 µM) |  | 256 µg/mL (≈ 697 µM) | 256 µg/mL (≈ 697 µM) |  |  | 256 µg/mL (≈ 697 µM) | 128 µg/mL (≈ 348 µM) |  | 256 µg/mL (≈ 697 µM) |  |
| Sc1nnc(COc2cccc3c2c2ccccc2n3CC2CCCC2)o1 | 0.25 µg/mL (≈ 0.659 µM) | 0.25 µg/mL (≈ 0.659 µM) | 1 µg/mL (≈ 2.64 µM) | 2 µg/mL (≈ 5.27 µM) | 1 µg/mL (≈ 2.64 µM) | 256 µg/mL (≈ 675 µM) |  | 2 µg/mL (≈ 5.27 µM) | 256 µg/mL (≈ 675 µM) |  |  | 8 µg/mL (≈ 21.1 µM) | 1 µg/mL (≈ 2.64 µM) | Active | 1 µg/mL (≈ 2.64 µM) | Active |
| Sc1nnc(COc2cccc3[nH]c4ccccc4c23)o1 | 2 µg/mL (≈ 6.73 µM) | 64 µg/mL (≈ 215 µM) | 64 µg/mL (≈ 215 µM) | 2 µg/mL (≈ 6.73 µM) | 4 µg/mL (≈ 13.5 µM) | 256 µg/mL (≈ 861 µM) |  | 4 µg/mL (≈ 13.5 µM) | 64 µg/mL (≈ 215 µM) |  |  | 128 µg/mL (≈ 430 µM) | 64 µg/mL (≈ 215 µM) |  | 1 µg/mL (≈ 3.36 µM) |  |
| CCn1c2ccccc2c2nnc(SCc3nnc(S)o3)nc21 | 256 µg/mL (≈ 743 µM) | 256 µg/mL (≈ 743 µM) | 256 µg/mL (≈ 743 µM) | 256 µg/mL (≈ 743 µM) | 256 µg/mL (≈ 743 µM) | 256 µg/mL (≈ 743 µM) |  | 256 µg/mL (≈ 743 µM) | 256 µg/mL (≈ 743 µM) |  |  | 256 µg/mL (≈ 743 µM) | 256 µg/mL (≈ 743 µM) |  | 256 µg/mL (≈ 743 µM) |  |
| Sc1nnc(Cn2c3ccccc3c3c(OCCN4CCOCC4)cccc32)o1 | 128 µg/mL (≈ 312 µM) | 64 µg/mL (≈ 156 µM) | 128 µg/mL (≈ 312 µM) | 64 µg/mL (≈ 156 µM) | 64 µg/mL (≈ 156 µM) | 256 µg/mL (≈ 624 µM) |  | 128 µg/mL (≈ 312 µM) | 128 µg/mL (≈ 312 µM) |  |  | 32 µg/mL (≈ 78 µM) | 128 µg/mL (≈ 312 µM) |  | 64 µg/mL (≈ 156 µM) |  |
| CCOc1cccc2c1c1ccccc1n2Cc1nnc(S)o1 | 1 µg/mL (≈ 3.07 µM) | 256 µg/mL (≈ 787 µM) | 16 µg/mL (≈ 49.2 µM) | 1 µg/mL (≈ 3.07 µM) | 32 µg/mL (≈ 98.3 µM) | 256 µg/mL (≈ 787 µM) | Active | 0.25 µg/mL (≈ 0.768 µM) | 64 µg/mL (≈ 197 µM) | < 3% | Active | 0.5 µg/mL (≈ 1.54 µM) | 0.25 µg/mL (≈ 0.768 µM) |  | 0.5 µg/mL (≈ 1.54 µM) |  |
| Sc1nnc(COc2cccc3c2c2ccccc2n3Cc2nnc(S)o2)o1 | 32 µg/mL (≈ 77.8 µM) | 128 µg/mL (≈ 311 µM) | 64 µg/mL (≈ 156 µM) | 32 µg/mL (≈ 77.8 µM) | 64 µg/mL (≈ 156 µM) | 128 µg/mL (≈ 311 µM) |  | 32 µg/mL (≈ 77.8 µM) | 32 µg/mL (≈ 77.8 µM) |  |  | 64 µg/mL (≈ 156 µM) | 128 µg/mL (≈ 311 µM) |  | 32 µg/mL (≈ 77.8 µM) |  |
| Fc1cccc(COc2cccc3c2c2ccccc2n3Cc2nnc(S)o2)c1 | 64 µg/mL (≈ 158 µM) | 0.5 µg/mL (≈ 1.23 µM) | 32 µg/mL (≈ 78.9 µM) | 32 µg/mL (≈ 78.9 µM) | 32 µg/mL (≈ 78.9 µM) | 256 µg/mL (≈ 631 µM) |  | 16 µg/mL (≈ 39.5 µM) | 128 µg/mL (≈ 316 µM) |  |  | 128 µg/mL (≈ 316 µM) | 64 µg/mL (≈ 158 µM) |  | 128 µg/mL (≈ 316 µM) |  |
